“And” between values parts separate entries of the source, which are not always exact repeats. Equal values may be shown once.
Assay: xn = mol fraction of the nth substance listed

Nc1ccccc1 + CCCCCCCCCCO
viscosity [mPa·s], 100 kPa
Settings | x1 = 0.0718 | x1 = 0.1593 | x1 = 0.2335 | x1 = 0.3471 | x1 = 0.4452 | x1 = 0.5618 | x1 = 0.6428 | x1 = 0.7439 | x1 = 0.8518 | x1 = 0.9439
293.15 K | 12.8 | 11.23 | 10.05 | 8.62 | 7.44 | 6.23 | 5.57 | 4.95 | 4.47 | 4.31
303.15 K | 8.75 | 7.6 | 6.85 | 5.92 | 5.25 | 4.38 | 3.94 | 3.56 | 3.23 | 3.12
313.15 K | 6.16 | 5.4 | 4.9 | 4.28 | 3.84 | 3.3 | 2.97 | 2.7 | 2.5 | 2.44
323.15 K | 4.47 | 4 | 3.65 | 3.21 | 2.89 | 2.51 | 2.28 | 2.1 | 1.95 | 1.91

CC(=O)[O-].CC[N+]1(C)CCOCC1 + O
viscosity [mPa·s], 100 kPa
Settings | x1 = 0.0567 | x1 = 0.0886 | x1 = 0.1794 | x1 = 0.253 | x1 = 0.3334 | x1 = 0.4341 | x1 = 0.4928 | x1 = 0.5718 | x1 = 0.6609 | x1 = 0.7155
298.15 K | 3.5 | 7.01 | 36.6 | 89.4 | 203 | 541 | 671 | 1472 | – | –
303.15 K | 3.03 | 5.93 | 31.9 | 66 | 143 | 347 | 503 | 1093 | – | –
308.15 K | 2.65 | 5.05 | 27 | 50 | 104 | 228 | 383 | 795 | 1969 | –
313.15 K | 2.34 | 4.33 | 22.5 | 38.7 | 78.1 | 150 | 278 | 566 | 1355 | 2266
318.15 K | 2.08 | 3.73 | 18.2 | 30.7 | 59.8 | 123 | 198 | 396 | 908 | 1518
323.15 K | 1.86 | 3.25 | 15 | 24.8 | 46.8 | 92.9 | 144 | 276 | 599 | 971

COCCOCCOCCOC + CCOC(=O)OCC
298.15 K, 101.33 kPa
Settings | viscosity [mPa·s]
x1 = 0.0103 | 0.759
x1 = 0.0175 | 0.767
x1 = 0.0246 | 0.775
x1 = 0.0367 | 0.788
x1 = 0.0576 | 0.813
x1 = 0.0787 | 0.837
x1 = 0.0958 | 0.856
x1 = 0.119 | 0.879
x1 = 0.1509 | 0.913
x1 = 0.1983 | 0.966
x1 = 0.2499 | 1.021
x1 = 0.3024 | 1.081
x1 = 0.3233 | 1.105
x1 = 0.3543 | 1.142
x1 = 0.4034 | 1.199
x1 = 0.4614 | 1.268
x1 = 0.5022 | 1.324
x1 = 0.552 | 1.386
x1 = 0.6112 | 1.463
x1 = 0.6561 | 1.519
x1 = 0.7044 | 1.583
x1 = 0.7371 | 1.624
x1 = 0.7905 | 1.693
x1 = 0.8464 | 1.764
x1 = 0.9175 | 1.85
x1 = 0.951 | 1.894

CC(C)(C)O + COC(C)(C)C
101.33 kPa
Settings | viscosity [mPa·s]
303.15 K, x2 = 0.0443 | 2.726
303.15 K, x2 = 0.0877 | 2.236
303.15 K, x2 = 0.1262 | 1.894
303.15 K, x2 = 0.1702 | 1.587
303.15 K, x2 = 0.2519 | 1.192
303.15 K, x2 = 0.2645 | 1.146
303.15 K, x2 = 0.3232 | 0.9699
303.15 K, x2 = 0.3619 | 0.8794
303.15 K, x2 = 0.4504 | 0.7203
303.15 K, x2 = 0.5434 | 0.5955
303.15 K, x2 = 0.5686 | 0.5668
303.15 K, x2 = 0.6631 | 0.4759
303.15 K, x2 = 0.7872 | 0.3997
303.15 K, x2 = 0.8887 | 0.3669
303.15 K, x2 = 0.9442 | 0.3487
313.15 K, x2 = 0.048 | 1.742
313.15 K, x2 = 0.0499 | 1.73
313.15 K, x2 = 0.0796 | 1.556
313.15 K, x2 = 0.092 | 1.491
313.15 K, x2 = 0.1717 | 1.149
313.15 K, x2 = 0.2531 | 0.9105
313.15 K, x2 = 0.267 | 0.878
313.15 K, x2 = 0.3697 | 0.6901
313.15 K, x2 = 0.4552 | 0.5827
313.15 K, x2 = 0.5678 | 0.4803
313.15 K, x2 = 0.6723 | 0.4109
313.15 K, x2 = 0.7688 | 0.3634
313.15 K, x2 = 0.8802 | 0.3241
313.15 K, x2 = 0.9456 | 0.305

Nc1ccccc1 + CCCCCCCO
viscosity [mPa·s], 100 kPa
Settings | x1 = 0.0821 | x1 = 0.1633 | x1 = 0.2429 | x1 = 0.3578 | x1 = 0.4421 | x1 = 0.5517 | x1 = 0.6514 | x1 = 0.7434 | x1 = 0.8522 | x1 = 0.9421
293.15 K | 6.21 | 5.64 | 5.21 | 4.74 | 4.45 | 4.11 | 3.94 | 3.86 | 3.86 | 4.1
303.15 K | 4.48 | 4.11 | 3.82 | 3.46 | 3.23 | 2.99 | 2.86 | 2.79 | 2.82 | 2.97
313.15 K | 3.31 | 3.05 | 2.85 | 2.61 | 2.46 | 2.3 | 2.22 | 2.19 | 2.22 | 2.34
323.15 K | 2.51 | 2.36 | 2.2 | 2.01 | 1.91 | 1.8 | 1.75 | 1.73 | 1.75 | 1.84

CCNCC + c1ccccc1
viscosity, 101.33 kPa
Settings | x1 = 0.2 | x1 = 0.4 | x1 = 0.5 | x1 = 0.6 | x1 = 0.8
293.15 K | 0.522 mPa·s and 0.522 mPa·s | 0.44 mPa·s | 0.411 mPa·s and 0.411 mPa·s | 0.387 mPa·s | 0.349 mPa·s
303.15 K | 0.463 mPa·s | 0.393 mPa·s | 0.367 mPa·s | 0.348 mPa·s | 0.314 mPa·s
308.15 K | 0.438 mPa·s and 0.438 mPa·s | 0.374 mPa·s | 0.35 mPa·s and 0.35 mPa·s | 0.333 mPa·s | 0.298 mPa·s

From the CheMixHub viscosity set
